# Test results published in patent publication US11834453B2, “Substituted pyrimido[5,4-d]pyrimidines as HER2 inhibitors” (Array BioPharma Inc., priority 2020, dated 2023).
# Where two headings read alike, the source gives them in different places.
# What was measured:
# ErbB2 WT = ErbB2 WT (Homo sapiens (Human), UniProt P04626); test: ErbB enzyme assay (CisBio HTRF KinEASE-TK), Assay 2; format: biochemical
# Outline: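 Readout is HTRF KinEASE-TK, using Sa-XL665 and cryptate antibody for 1 h at 22 °C, as percent of control between DMSO-only (100) and pre-quenched (0) reactions. The kinase reaction runs 30 min at 22 °C with 1 mM ATP and 250 nM biotinylated TK substrate, in HEPES pH 7.4 with MgCl2 and 2% DMSO.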
# EGFR = EGFR (Homo sapiens (Human), UniProt P00533); test: ErbB enzyme assay (CisBio HTRF KinEASE-TK), Assay 3; format: biochemical
# Outline: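 HTRF dual-wavelength read after 1 h detection; POC normalised to DMSO (100) and pre-quenched (0) controls, IC50 where 4-parameter curve crosses 50 POC. Reaction: 250 nM TK-substrate biotin, 1 mM ATP, pH 7.4 HEPES buffer with MgCl2, 30 min, 22 °C.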
# EGFR wild type (EGFR WT) = EGFR wild type (EGFR WT) (Homo sapiens (Human), UniProt P00533); test: Cellular phosphorylation assay, EGF-stimulated EGFR phosphorylation in engineered NIH 3T3 cells, Phospho-EGFR DuoSet IC ELISA, Assay 5; format: cell-based
# Outline: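 Phospho-EGFR ELISA on lysates of engineered NIH 3T3 EGFR WT cells, IC50 derived from concentration curves. Cells plated at 20,000/well overnight, given compound dilutions 1 h at 37 °C, then rEGF 100 ng/ml for a further 10 min before lysis.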
# [1] = target: ErbB2 insYVMA (HER2-YVMA, SEQ ID NO: 2) (Homo sapiens, UniProt P04626, INS775YVMA/P1170A); test: biochemical; settings: ErbB2 insYVMA enzyme assay
# [2] = target: ErbB2 with Exon 20 YVMA insertion (HER2-YVMA) (Homo sapiens (Human), UniProt P04626, INS775YVMA); test: Cellular phosphorylation assay, constitutive ErbB2 phosphorylation (Y1196) in engineered NIH 3T3 cells, Assay 4; format: cell-based
# Outline: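 In-cell Western in NIH 3T3 cells carrying ErbB2 exon 20 YVMA insertion, with no ligand stimulation. One hour compound exposure at 37 °C before fixation and anti-pY1196 plus GAPDH staining with dual-wavelength fluorescence. IC50 derived after GAPDH normalization.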
# Sequence of ErbB2 insYVMA (HER2-YVMA, SEQ ID NO: 2) (P04626 with tags, fused parts or gaps INS775YVMA/P1170A limits assumed): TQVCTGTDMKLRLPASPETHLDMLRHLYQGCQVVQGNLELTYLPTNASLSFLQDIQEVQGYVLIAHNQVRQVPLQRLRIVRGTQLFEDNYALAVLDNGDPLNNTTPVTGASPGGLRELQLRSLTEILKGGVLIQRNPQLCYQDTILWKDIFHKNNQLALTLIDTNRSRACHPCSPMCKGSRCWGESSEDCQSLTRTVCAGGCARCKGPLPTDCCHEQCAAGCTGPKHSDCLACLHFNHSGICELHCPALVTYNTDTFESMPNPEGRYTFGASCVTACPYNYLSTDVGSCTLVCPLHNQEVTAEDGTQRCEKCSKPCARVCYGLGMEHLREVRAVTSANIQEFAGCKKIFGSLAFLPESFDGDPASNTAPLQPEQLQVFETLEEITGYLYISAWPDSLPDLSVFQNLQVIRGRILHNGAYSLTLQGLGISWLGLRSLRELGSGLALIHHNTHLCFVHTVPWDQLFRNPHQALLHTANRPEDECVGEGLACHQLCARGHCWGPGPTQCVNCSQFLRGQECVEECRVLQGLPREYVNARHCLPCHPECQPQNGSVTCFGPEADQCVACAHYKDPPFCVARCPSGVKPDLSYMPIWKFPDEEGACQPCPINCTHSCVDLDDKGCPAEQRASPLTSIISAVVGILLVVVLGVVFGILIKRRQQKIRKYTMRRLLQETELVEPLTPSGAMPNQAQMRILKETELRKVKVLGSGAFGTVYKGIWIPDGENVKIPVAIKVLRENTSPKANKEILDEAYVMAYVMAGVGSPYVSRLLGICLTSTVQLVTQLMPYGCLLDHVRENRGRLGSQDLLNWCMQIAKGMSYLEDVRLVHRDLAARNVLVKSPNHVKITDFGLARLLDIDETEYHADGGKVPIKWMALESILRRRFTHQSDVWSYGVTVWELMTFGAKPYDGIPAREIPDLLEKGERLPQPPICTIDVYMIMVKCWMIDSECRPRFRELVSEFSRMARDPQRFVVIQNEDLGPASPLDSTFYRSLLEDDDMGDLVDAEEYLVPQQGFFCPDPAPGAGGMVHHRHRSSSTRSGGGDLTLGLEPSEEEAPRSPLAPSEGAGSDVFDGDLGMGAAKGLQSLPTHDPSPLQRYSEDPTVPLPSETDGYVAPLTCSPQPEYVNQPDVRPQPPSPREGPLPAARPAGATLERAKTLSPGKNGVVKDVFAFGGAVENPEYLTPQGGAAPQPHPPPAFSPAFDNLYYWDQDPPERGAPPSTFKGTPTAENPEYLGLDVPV
# Sequence of ErbB2 WT (P04626 23-1255): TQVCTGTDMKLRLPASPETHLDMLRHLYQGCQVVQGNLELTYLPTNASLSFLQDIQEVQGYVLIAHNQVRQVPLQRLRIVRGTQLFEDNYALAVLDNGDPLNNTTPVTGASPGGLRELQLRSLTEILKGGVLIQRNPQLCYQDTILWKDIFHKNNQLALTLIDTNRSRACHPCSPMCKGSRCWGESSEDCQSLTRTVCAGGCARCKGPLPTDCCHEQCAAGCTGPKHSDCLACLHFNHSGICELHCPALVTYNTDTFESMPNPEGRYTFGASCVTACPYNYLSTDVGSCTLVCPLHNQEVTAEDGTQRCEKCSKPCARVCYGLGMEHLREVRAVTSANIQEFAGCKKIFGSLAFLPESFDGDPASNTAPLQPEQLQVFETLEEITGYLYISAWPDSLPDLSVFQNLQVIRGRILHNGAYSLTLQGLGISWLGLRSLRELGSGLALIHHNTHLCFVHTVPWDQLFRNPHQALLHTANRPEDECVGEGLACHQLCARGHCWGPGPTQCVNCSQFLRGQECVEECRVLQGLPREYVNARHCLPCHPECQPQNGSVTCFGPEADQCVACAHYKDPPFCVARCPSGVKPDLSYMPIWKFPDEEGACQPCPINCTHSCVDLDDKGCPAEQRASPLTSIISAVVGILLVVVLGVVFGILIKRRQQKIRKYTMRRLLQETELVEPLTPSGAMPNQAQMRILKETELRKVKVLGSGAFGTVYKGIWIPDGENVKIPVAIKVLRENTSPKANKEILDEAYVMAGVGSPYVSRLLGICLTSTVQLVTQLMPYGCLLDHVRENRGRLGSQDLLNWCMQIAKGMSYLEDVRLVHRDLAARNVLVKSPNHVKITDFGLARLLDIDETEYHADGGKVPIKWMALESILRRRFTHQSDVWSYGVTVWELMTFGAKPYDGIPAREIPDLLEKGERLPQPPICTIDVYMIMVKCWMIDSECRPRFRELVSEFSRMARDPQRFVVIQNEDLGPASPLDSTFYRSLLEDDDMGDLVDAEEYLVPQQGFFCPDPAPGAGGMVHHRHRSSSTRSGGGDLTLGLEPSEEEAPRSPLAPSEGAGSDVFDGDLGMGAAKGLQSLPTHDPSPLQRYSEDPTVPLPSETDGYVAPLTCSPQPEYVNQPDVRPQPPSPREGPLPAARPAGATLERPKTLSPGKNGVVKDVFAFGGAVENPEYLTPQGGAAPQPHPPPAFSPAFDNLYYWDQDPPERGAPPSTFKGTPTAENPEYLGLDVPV
# Sequence of ErbB2 with Exon 20 YVMA insertion (HER2-YVMA) (P04626 other isoform, or with tags, fused parts or gaps ins YVMA behind 775): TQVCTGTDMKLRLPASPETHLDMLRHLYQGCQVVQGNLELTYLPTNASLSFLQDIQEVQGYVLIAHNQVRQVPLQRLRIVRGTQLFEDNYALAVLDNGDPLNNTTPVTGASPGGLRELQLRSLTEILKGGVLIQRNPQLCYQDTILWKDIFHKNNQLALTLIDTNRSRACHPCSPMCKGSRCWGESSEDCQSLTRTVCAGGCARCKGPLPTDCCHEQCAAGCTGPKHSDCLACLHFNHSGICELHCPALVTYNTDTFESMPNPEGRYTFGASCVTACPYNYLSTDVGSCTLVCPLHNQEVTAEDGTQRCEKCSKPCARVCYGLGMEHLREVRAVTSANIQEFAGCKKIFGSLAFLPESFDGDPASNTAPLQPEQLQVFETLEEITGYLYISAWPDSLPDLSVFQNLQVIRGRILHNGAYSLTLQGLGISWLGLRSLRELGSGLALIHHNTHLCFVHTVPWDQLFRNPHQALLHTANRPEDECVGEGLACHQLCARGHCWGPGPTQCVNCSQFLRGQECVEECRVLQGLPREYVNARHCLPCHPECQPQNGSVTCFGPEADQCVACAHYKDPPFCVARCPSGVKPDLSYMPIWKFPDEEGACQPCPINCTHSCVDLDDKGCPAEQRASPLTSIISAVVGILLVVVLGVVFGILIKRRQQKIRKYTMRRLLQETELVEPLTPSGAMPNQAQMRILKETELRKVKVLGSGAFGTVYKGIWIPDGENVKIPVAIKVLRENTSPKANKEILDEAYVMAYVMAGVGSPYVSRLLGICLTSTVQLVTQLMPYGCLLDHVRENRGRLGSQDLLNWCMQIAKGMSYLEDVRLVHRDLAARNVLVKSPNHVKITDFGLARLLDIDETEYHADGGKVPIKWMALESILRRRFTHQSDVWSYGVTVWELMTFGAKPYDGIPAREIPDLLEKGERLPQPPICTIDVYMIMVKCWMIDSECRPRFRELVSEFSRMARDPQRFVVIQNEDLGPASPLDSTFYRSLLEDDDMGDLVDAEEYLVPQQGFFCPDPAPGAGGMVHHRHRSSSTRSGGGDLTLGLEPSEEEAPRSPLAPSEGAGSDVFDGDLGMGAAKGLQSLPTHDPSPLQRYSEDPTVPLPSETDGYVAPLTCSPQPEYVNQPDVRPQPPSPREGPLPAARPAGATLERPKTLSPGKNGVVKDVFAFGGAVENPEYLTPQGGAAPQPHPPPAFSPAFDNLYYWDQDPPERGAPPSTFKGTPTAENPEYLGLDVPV
# Sequence of EGFR wild type (EGFR WT) (P00533 25-1210): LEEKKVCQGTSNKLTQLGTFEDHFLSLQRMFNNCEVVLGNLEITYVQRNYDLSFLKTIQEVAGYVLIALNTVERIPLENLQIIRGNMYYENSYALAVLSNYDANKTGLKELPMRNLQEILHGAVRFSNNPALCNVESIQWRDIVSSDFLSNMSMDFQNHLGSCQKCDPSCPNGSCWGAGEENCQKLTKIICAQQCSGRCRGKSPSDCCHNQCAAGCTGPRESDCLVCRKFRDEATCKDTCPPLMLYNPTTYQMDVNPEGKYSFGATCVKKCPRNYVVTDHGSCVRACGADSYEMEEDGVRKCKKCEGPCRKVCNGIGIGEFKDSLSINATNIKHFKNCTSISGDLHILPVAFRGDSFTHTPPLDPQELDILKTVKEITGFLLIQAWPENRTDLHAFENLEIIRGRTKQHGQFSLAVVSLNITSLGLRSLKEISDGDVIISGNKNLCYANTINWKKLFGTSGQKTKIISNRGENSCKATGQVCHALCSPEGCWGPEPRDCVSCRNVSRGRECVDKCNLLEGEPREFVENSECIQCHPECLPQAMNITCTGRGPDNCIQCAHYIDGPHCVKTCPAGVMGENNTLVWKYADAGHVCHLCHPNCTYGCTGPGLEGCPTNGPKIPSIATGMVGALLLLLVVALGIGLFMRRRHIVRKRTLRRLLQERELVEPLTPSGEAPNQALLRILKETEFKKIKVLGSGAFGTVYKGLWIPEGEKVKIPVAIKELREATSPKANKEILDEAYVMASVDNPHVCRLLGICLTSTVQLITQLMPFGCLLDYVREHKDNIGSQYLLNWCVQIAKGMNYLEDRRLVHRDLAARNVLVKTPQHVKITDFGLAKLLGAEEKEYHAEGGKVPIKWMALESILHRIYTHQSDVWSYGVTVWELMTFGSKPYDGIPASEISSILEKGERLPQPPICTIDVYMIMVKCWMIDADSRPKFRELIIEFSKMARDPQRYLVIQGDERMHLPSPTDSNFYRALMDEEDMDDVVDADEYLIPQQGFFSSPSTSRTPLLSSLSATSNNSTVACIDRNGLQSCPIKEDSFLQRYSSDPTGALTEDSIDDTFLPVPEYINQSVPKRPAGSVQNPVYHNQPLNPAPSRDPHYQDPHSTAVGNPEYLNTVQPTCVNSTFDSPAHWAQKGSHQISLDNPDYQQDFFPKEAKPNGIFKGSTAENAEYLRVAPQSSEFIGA
SMILES,IC50 (ErbB2 WT) [nM],IC50 (EGFR) [nM],IC50 (EGFR wild type (EGFR WT)) [nM],IC50 ([1]; read-out: Assay 1 IC50) [nM],IC50 [2] [nM],IC50 ([1]; Assay 1 IC50 (nM)) [nM]
Cn1cnc2cc(Oc3ccc(Nc4ncnc5cnc(N6CC[C@@H](C#N)C6)nc45)cc3Cl)ccc21 [Example 444],52.6,≥ 10000,≥ 5000,24.3,41.7,
Cn1cnc2cc(Oc3ccc(Nc4ncnc5cnc(N6CCN[C@H](C(F)(F)F)C6)nc45)cc3Cl)ccc21 [Example 445],64.5,4500,≥ 5000,65,44.2,
Cn1cnc2cc(Oc3ccc(Nc4ncnc5cnc(N6C[C@@H]7CC[C@H]6CO7)nc45)cc3Cl)ccc21 [Example 446],134,≥ 10000,≥ 5000,20.7,123,
Cn1cnc2cc(Oc3ccc(Nc4ncnc5cnc(N6CC7CCC(C6)O7)nc45)cc3Cl)ccc21 [Example 447],91,≥ 10000,≥ 5000,,12.2,46.8
Cn1cnc2cc(Oc3ccc(Nc4ncnc5cnc(N6CCOC(C)(C)C6)nc45)cc3Cl)ccc21 [Example 448],143,≥ 10000,≥ 5000,75.9,40.8,
Cn1cnc2cc(Oc3ccc(Nc4ncnc5cnc(N6CCOC7(CC7)C6)nc45)cc3Cl)ccc21 [Example 449],152,≥ 10000,≥ 5000,157,6.2,
C[C@H]1CN(c2ncc3ncnc(Nc4ccc(Oc5ccc6c(c5)ncn6C)c(Cl)c4)c3n2)CCO1 [Example 450],55,4010,≥ 5000,26.1,13.4,
Cn1cnc2cc(Oc3ccc(Nc4ncnc5cnc(N6C[C@H]7CC[C@@H]6CO7)nc45)cc3Cl)ccc21 [Example 451],63.8,3500,≥ 5000,,24.7,42.7
C[C@@H]1CN(c2ncc3ncnc(Nc4ccc(Oc5ccc6c(c5)ncn6C)c(Cl)c4)c3n2)CCO1 [Example 452],115,≥ 10000,≥ 5000,47.6,20.2,
Cc1c(Oc2ccc3c(c2)ncn3C)ccc(Nc2ncnc3cnc(N4CC[C@H]4C(C)(C)O)nc23)c1F [Example 453],474,≥ 10000,≥ 5000,64.6,383,
Cn1cnc2cc(Oc3ccc(Nc4ncnc5cnc(N6C[C@H]7C[C@@H]6CO7)nc45)cc3Cl)ccc21 [Example 455],176,≥ 10000,≥ 5000,48.7,58.2,
CN(CC(C)(C)O)c1ncc2ncnc(Nc3ccc(Oc4ccc5c(c4)ncn5C)c(Cl)c3)c2n1 [Example 456],69.8,4520,≥ 5000,25.9,47.6,
Cc1c(Oc2ccc3c(c2)ncn3C)ccc(Nc2ncnc3cnc(N4C[C@H]5C[C@@H]4CO5)nc23)c1F [Example 457],83.9,8240,≥ 5000,25.1,50.6,
Cc1c(Oc2ccc3c(c2)ncn3C)ccc(Nc2ncnc3cnc(N4CC[C@H](O)C4)nc23)c1F [Example 458],28,1630,≥ 5000,13.3,75.2,
Cc1cc(Nc2ncnc3cnc(N4C[C@H]5C[C@@H]4C[C@H]5O)nc23)ccc1Oc1ccc2c(c1)ncn2C [Example 459],36.6,≥ 10000,≥ 5000,18.7,45.1,
Cc1cc(Nc2ncnc3cnc(N4CCC(F)(F)[C@@H](O)C4)nc23)ccc1Oc1ccc2c(c1)ncn2C [Example 460],89.7,≥ 10000,≥ 5000,59.1,88,
Cc1cc(Nc2ncnc3cnc(N4CCC[C@](C)(O)C4)nc23)ccc1Oc1ccc2c(c1)ncn2C [Example 461],31.9,≥ 10000,≥ 5000,20.5,46.5,
Cc1cc(Nc2ncnc3cnc(N4CC5CCOC5C4)nc23)ccc1Oc1ccc2c(c1)ncn2C (stereo not drawn) [Example 462],41.5,≥ 10000,≥ 5000,20.3,18.6,
Cc1cc(Nc2ncnc3cnc(N4CCP(C)(=O)CC4)nc23)ccc1Oc1ccc2c(c1)ncn2C [Example 463],275,≥ 10000,≥ 5000,71.3,662,
Cc1cc(Nc2ncnc3cnc(N4CC5CC(C4)C5O)nc23)ccc1Oc1ccc2c(c1)ncn2C (stereo not drawn) [Example 464],60.2,≥ 10000,≥ 5000,,83.1,9.4
Cc1cc(Nc2ncnc3cnc(N4CC5(CCC5O)C4)nc23)ccc1Oc1ccc2c(c1)ncn2C (stereo not drawn) [Example 465],47.6,≥ 10000,≥ 5000,44.3,67.8,
Cc1cc(Nc2ncnc3cnc(N4C[C@H]5COC[C@H]5C4)nc23)ccc1Oc1ccc2c(c1)ncn2C [Example 466],61.3,≥ 10000,≥ 5000,24.1,16.2,
Cc1cc(Nc2ncnc3cnc(N(C)[C@H]4C[C@@H](C(C)(C)O)C4)nc23)ccc1Oc1ccc2c(c1)ncn2C [Example 467],34.5,4790,≥ 5000,26.4,19.4,
Cc1cc(Nc2ncnc3cnc(N4C[C@@H](O)C(C)(C)C4)nc23)ccc1Oc1ccc2c(c1)ncn2C [Example 468],130,≥ 10000,≥ 5000,39.1,87.2,
Cc1cc(Nc2ncnc3cnc(N4C[C@@H]5C[C@H]4C[C@H]5O)nc23)ccc1Oc1ccc2c(c1)ncn2C [Example 471],49.4,≥ 10000,≥ 5000,7.1,42.5,
Cc1cc(Nc2ncnc3cnc(N4CCC(C)(C#N)C4)nc23)ccc1Oc1ccc2c(c1)ncn2C (stereo not drawn) [Example 475],88.6,≥ 10000,≥ 5000,22.4,82.6,
Cc1cc(Nc2ncnc3cnc(N4CCN(CC(F)F)CC4)nc23)ccc1Oc1ccc2c(c1)ncn2C [Example 477],47.1,≥ 10000,≥ 5000,59.6,53.3,
CCN(CC(C)(C)O)c1ncc2ncnc(Nc3ccc(Oc4ccc5c(c4)ncn5C)c(C)c3)c2n1 [Example 478],41.6,≥ 10000,≥ 5000,27.9,109,
CN(CCC(C)(C)O)c1ncc2ncnc(Nc3ccc(Oc4ccc5c(c4)ncn5C)c(Cl)c3)c2n1 [Example 479],24.4,2210,≥ 5000,26.5,12.9,
Cn1cnc2cc(Oc3ccc(Nc4ncnc5cnc(N6CCC(C)(O)CC6)nc45)cc3Cl)ccc21 [Example 480],23.3,5040,≥ 5000,18.1,4.4,
